Measurements taken from US7034059B2, “Methods of using norfluoxetine” (Sepracor Inc., priority 2001, dated 2006).
pIC50: −log10 of the molar value. Where two headings read alike, the source gives them in different places.

Experiments:
[1] = test system: human lung fibroblast cell line WI-38; assay: Inhibition of IL-1β-induced PGE2 production, whole cell-based assay; details: for PGE2 (pg/ml) / PGE2: IL-1β 100 pg/mL, 24 hours; for pIC50: Homo sapiens; for anti-inflammatory activity in vitro, R- versus S-enantiomer: conclusion from Tables 1-4
Procedure: Compounds were tested for anti-inflammatory activity using a whole cell-based assay, wherein the human lung fibroblast cell line WI-38 was cultured in Eagle's basal media supplemented with 10% fetal calf serum (FCS) in 48-well tissue culture dishes in a humidified 7% CO2 atmosphere at 37° C. When the cells reached confluence, they were fed with fresh media for 24 hours. The media was removed and fresh media, containing either 5% or 10% FCS, was added to the cells. […] Interleukin-1β (Calbiochem) in 0.1% bovine serum albumin in phosphate buffered saline was added in a 1 μL aliquot to give a final concentration of 100 pg/mL. The cells were cultured for 24 hours and the amount of PGE2 secreted into the cell culture media was assayed using a PGE2 enzyme immunoassay kit (Cayman Chemicals, Ann Arbor, Mich.). Inhibition of PGE2 production is indicative of anti-inflammatory activity.
The IC50 values of enantiomerically pure R- and S-norfluoxetine were determined by incubation of the WI-38 cells with varying concentrations of the compounds in question ([…]). The PGE2 produced for each concentration was plotted against the concentration of compound using the 6 safit 4.0 program (Erithacus software) and the IC50 determined by fitting the data to the 4-parameter equation.

[2] = Serum levels of norfluoxetine after fluoxetine treatment (Prozac package insert); type: in vivo; details: human, oral, humans, after treatment for 30 days with 40 mg per day of fluoxetine, approximate conversion of ng/ml
Text: It is noteworthy that these values, especially that of R-norfluoxetine, fall within values that may be obtained in serum in humans.

serotonin reuptake = details: Physicians' Desk Reference; cited from earlier work
[3] = Table 1, 10% fetal calf serum-containing media, compound 0.5 uM
[4] = Table 1, 10% fetal calf serum-containing media, compound 10 uM
[5] = Table 2, 5% fetal calf serum-containing media, compound 0.5 uM
[6] = Table 2, 5% fetal calf serum-containing media, compound 10 uM
[7] = Table 3, 10% fetal calf serum-containing media, compound 0.5 uM
[8] = Table 3, 10% fetal calf serum-containing media, compound 10 uM
[9] = Table 4, 5% fetal calf serum-containing media, compound 0.5 uM
[10] = Table 4, 5% fetal calf serum-containing media, compound 10 uM

| Structure (SMILES) | PGE2 (pg/ml) [1, 3] | PGE2 (pg/ml) [1, 4] | PGE2 (pg/ml) [1, 5] | PGE2 (pg/ml) [1, 6] | PGE2 [1, 5] | PGE2 [1, 3] | further results |
| --- | --- | --- | --- | --- | --- | --- | --- |
| CNCCC(Oc1ccc(C(F)(F)F)cc1)c1ccccc1 (racemic) [rac-fluoxetine, (±)-N-methyl-γ-[4-(trifluoromethyl)-phenoxy]benzenepropanamine] | low | low | low | low |  |  | PGE2 [1, 7]: 545 pg/mL; PGE2 [1, 8]: 156 pg/mL; PGE2 [1, 9]: 22 pg/mL; PGE2 (pg/ml) [1, 10]: low |
| CC(C(=O)O)c1cccc(C(=O)c2ccccc2)c1 (racemic) [rac-ketoprofen, ketoprofen] |  | low |  | low | 119 pg/mL |  |  |
| NCCC(Oc1ccc(C(F)(F)F)cc1)c1ccccc1 (racemic) [rac-norfluoxetine, (±)-γ-[4-(trifluoromethyl)-phenoxy]benzenepropanamine] |  | low | low | low |  | 189 pg/mL | concentration at 30 days [2]: 230 to 830 nM |
| C[C@@H](C(=O)O)c1cccc(C(=O)c2ccccc2)c1 [(R)-ketoprofen] | low | low | low | low |  |  |  |
| NCC[C@@H](Oc1ccc(C(F)(F)F)cc1)c1ccccc1 [(R)-norfluoxetine, R-norfluoxetine] |  |  |  |  | 255 pg/mL | 714 pg/mL | pIC50 ([1]; WI-38, read-out: IC50 (PGE2 produced)): ~6.10; PGE2 [1, 4]: 159 pg/mL; PGE2 [1, 6]: 31 pg/mL; anti-inflammatory activity in vitro, R- versus S-enantiomer [1]: substantially equipotent; potency in inhibiting serotonin uptake (serotonin reuptake): significantly less potent than racemic fluoxetine |
| C[C@H](C(=O)O)c1cccc(C(=O)c2ccccc2)c1 [(S)-ketoprofen] | low | low |  | low | 145 pg/mL |  |  |
| NCC[C@H](Oc1ccc(C(F)(F)F)cc1)c1ccccc1 [(S)-norfluoxetine, S-norfluoxetine] |  |  |  |  | 483 pg/mL | 809 pg/mL | pIC50 ([1]; WI-38 cells, 0.009-20 concentrations, 4-parameter fit, read-out: IC50 (PGE2 produced)): ~5.85; PGE2 [1, 4]: 486 pg/mL; PGE2 [1, 6]: 112 pg/mL; anti-inflammatory activity in vitro, R- versus S-enantiomer [1]: substantially equipotent; potency in inhibiting serotonin uptake (serotonin reuptake): potent and selective serotonin uptake inhibition |
| Cc1ccc(-c2cc(C(F)(F)F)nn2-c2ccc(S(N)(=O)=O)cc2)cc1 [celebrex] | low | low |  | low | 16 pg/mL |  | PGE2 (pg/ml) [1, 7]: low; PGE2 (pg/ml) [1, 8]: low; PGE2 (pg/ml) [1, 9]: low; PGE2 (pg/ml) [1, 10]: low |
| CNCCC=C1c2ccccc2CCc2ccccc21 [nortriptylene] |  |  |  |  |  |  | PGE2 [1, 7]: 2040 pg/mL; PGE2 [1, 8]: 648 pg/mL; PGE2 [1, 9]: 880 pg/mL; PGE2 [1, 10]: 331 pg/mL |
